Source: patent publication US20180263985A1, “MODULATORS OF TOLL-LIKE RECEPTORS FOR THE TREATMENT OF HIV” (Gilead Sciences, Inc., priority 2015, published 2018)
Values joined by “and” are separate entries in the source; they are usually repeats but may differ in a detail not shown here. Equal values may be shown once.

Tests used:
Format in all cases: cell-based, human
CD4+ T Cells = assay: Immune cell activation in PBMC cultures, flow cytometry: CD4+ T cells; conditions: 2 days, N = 6
Protocol: (§1) TLR8 is expressed on multiple immune cell subsets. To determine how treatment with a TLR8 modulating compound affects activation of distinct cell populations, PBMCs were purified from HIV-1 infected subjects on cART, as described in Example 121 (anonymized participant IDs 184, 185, 188, 189, 190, and 191). […] After incubation, PBMCs were harvested and stained with antibodies conjugated to specific fluorophores (BD Biosciences) to delineate immune cell subsets: CD4 T cells (CD3+CD4+CD8−), CD8 T cells (CD3+CD8+CD4−), NK cells (CD3−CD56+CD16+), monocytes (CD3−CD14+), B cells (CD3−CD19+), and peripheral dendritic cells (DCs), defined as positive for HLA-DR and negative for a panel of markers: CD3, CD14, CD16, CD19, CD20, CD56 (Lin-1 lineage panel, BD Biosciences).
(§2) Additional markers of activation, maturation, and effector function were included for cell subsets, as follows: CD4 and CD8 T cells (CD25, CD38, CD69, IFN-γ, granzyme B, perforin, TNF-α), NK cells (CD25, CD69, IFN-γ), monocytes (CD11c, CD16, CD80, CD86, CD163, TNF-α), B cells (CD40, CD69, CD80, CD86), and DC (CD11c, CD69, CD80, CD86, CD123, and CD163). Cells were stained for surface markers (CD3, CD4, CD8, CD11c, CD14, CD16, CD25, CD69, CD80, CD86, CD163), washed, treated with fixation and permeabilization buffer (eBioscience), and stained for intracellular markers (IFN-γ, granzyme B, perforin, TNF-α). Cells were evaluated by flow cytometry on a LSR Fortessa (BD Biosciences), and data was analyzed with FlowJo software (TreeStar).
(§3) Data are expressed as geometric mean percentage (%) and as geometric mean fold-activation (Fold) for each marker and for each PBMC subset obtained from 4 or 6 subjects, as indicated. Fold activation is calculated as a ratio of the % positive for each marker for each PBMC subset at the indicated concentration of the compound of Example 15 relative to % positive for DMSO treated samples. Fold activations that are 1.5 are in bold.

B Cells = assay: Immune cell activation in PBMC cultures, flow cytometry: B cells; conditions: for B Cells CD69 Fold / B Cells CD80 Fold / B Cells CD69 % / B Cells CD80 %: 2 days, N = 4
Protocol: as §1, §2, §3

[1] = test system: PBMC cultures from HIV-1 infected subjects on cART; assay: Induced HIV-1 expression in PBMC cultures, HIV-1 RNA in supernatant after 4 days (COBAS TaqMan HIV-1 Test); conditions: for Geometric Mean with ≥2-Fold-Activation / Range with ≥2-Fold-Activation: N = 12; for N with ≥2-Fold-Activation: subjects; for Fold HIV-1 Activation: vs DMSO
Protocol: In some experiments, IL-15, the TLR8 modulating compound of Example 15 or the combination of IL-15 and Example 15 were used at the indicated concentrations (Table 4). The cultures were maintained in the presence of antivirals (elvitegravir and efavirenz at 100 nM each) to prevent viral spread and amplification in order to measure the quantity of virus produced (latency reversal) by the TLR8 modulating compounds. At the end of the incubation period, cell-free culture supernatants were harvested and HIV-1 RNA levels were quantified by the COBAS® AmpliPrep/COBAS®TaqMan HIV-1 Test, v2.0 (Roche).
In each table, fold-activation is calculated as a ratio of HIV-1 RNA copies per ml of cell culture supernatants from TLR8 agonist treated samples and DMSO treated controls. Geometric mean fold-activation from three independent incubation samples for each condition of each subject's PBMCs. Values in bold indicate ≥2-fold HIV activation.
To assess if the latency reversal induced by TLR8 agonism could further potentiate latency reversal by a separate mechanisms, we treated cells as described above with IL-15, Example 15, or a combination of IL-15 and Example 15 (Table 4).

## CCCC[C@H](CO)Nc1nc(N)nc2cccnc12 [Example 15]
CD4+ T Cells; 10 nM vs DMSO
  CD4+ T Cells CD25 Fold: 0.6 fold
  CD4+ T Cells CD69 Fold: 0.7 fold
  CD4+ T Cells Perforin Fold: 1.5 fold
CD4+ T Cells; 10 nM
  CD4+ T Cells CD25 %: 1.5%
  CD4+ T Cells CD69 %: 5.7%
CD4+ T Cells; 100 nM vs DMSO
  CD4+ T Cells CD25 Fold: 1.7 fold
  CD4+ T Cells CD69 Fold: 1.0 fold
  CD4+ T Cells Perforin Fold: 1.3 fold
CD4+ T Cells; 100 nM
  CD4+ T Cells CD25 %: 3.9%
  CD4+ T Cells CD69 %: 7.7%
CD4+ T Cells; 1000 nM vs DMSO
  CD4+ T Cells CD25 Fold: 1.8 fold
  CD4+ T Cells CD69 Fold: 1.5 fold
  CD4+ T Cells Perforin Fold: 1.8 fold
CD4+ T Cells; 1000 nM
  CD4+ T Cells CD25 %: 4.2%
CD4+ T Cells; 3000 nM vs DMSO
  CD4+ T Cells CD25 Fold: 1.3 fold
  CD4+ T Cells CD69 Fold: 1.7 fold
  CD4+ T Cells Perforin Fold: 2.1 fold
CD4+ T Cells; 3000 nM
  CD4+ T Cells CD25 %: 3.0%
  CD4+ T Cells Perforin %: 17.0%
B Cells; 10 nM vs DMSO
  B Cells CD69 Fold: 1.2 fold
  B Cells CD80 Fold: 1.6 fold
B Cells; 10 nM
  B Cells CD69 %: 10.0%
  B Cells CD80 %: 2.6%
B Cells; 100 nM vs DMSO
  B Cells CD69 Fold: 0.5 fold
  B Cells CD80 Fold: 1.1 fold
B Cells; 100 nM
  B Cells CD69 %: 3.9%
  B Cells CD80 %: 1.7%
B Cells; 1000 nM vs DMSO
  B Cells CD69 Fold: 1.1 fold
  B Cells CD80 Fold: 1.4 fold
B Cells; 1000 nM
  B Cells CD69 %: 9.1%
  B Cells CD80 %: 2.2%
B Cells; 3000 nM vs DMSO
  B Cells CD69 Fold: 1.7 fold
  B Cells CD80 Fold: 1.9 fold
B Cells; 3000 nM
  B Cells CD80 %: 3.0%
B Cells; increased expression of CD69 and CD80
  Concentration of maximal activation of B cells: 3000 nM
[1]; 10 nM
  Subjects with ≥2-Fold-Activation (%): (42) %
  Geometric Mean with ≥2-Fold-Activation: 4.6 fold
  Range with ≥2-Fold-Activation: 2.2-20.1 fold
  N with ≥2-Fold-Activation: 5 of 12
[1]; 10 nM, one value per subject (IDs 172-183)
  Fold HIV-1 Activation: 2.6 fold and 2.2 fold and 4.7 fold and 1.2 fold and 1.9 fold and 1.3 fold and 0.3 fold and 0.5 fold and 1.0 fold and 4.1 fold and 0.8 fold
[1]; 100 nM
  Subjects with ≥2-Fold-Activation (%): (33) %
  Geometric Mean with ≥2-Fold-Activation: 4.8 fold
  Range with ≥2-Fold-Activation: 2.2-10.1 fold
  N with ≥2-Fold-Activation: 4 of 12
[1]; 100 nM, one value per subject (IDs 172-183)
  Fold HIV-1 Activation: 3.8 fold and 6.6 fold and 2.2 fold and 1.5 fold and 1.0 fold and 0.5 fold and 0.2 fold and 0.1 fold and 0.7 fold and 1.8 fold and 1.3 fold
[1]; 1,000 nM
  Subjects with ≥2-Fold-Activation (%): (58) %
  Geometric Mean with ≥2-Fold-Activation: 3.4 fold
  Range with ≥2-Fold-Activation: 2.4-5.7 fold
  N with ≥2-Fold-Activation: 7 of 12
[1]; 1,000 nM, one value per subject (IDs 172-183)
  Fold HIV-1 Activation: 2.7 fold and 2.4 fold and 3.3 fold and 1.2 fold and 4.7 fold and 0.3 fold (2×) and 3.4 fold and 3.0 fold and 1.3 fold and 1.6 fold and 5.7 fold
[1]; 10, 100, or 1000 nM
  Geometric Mean with ≥2-Fold-Activation: 4.4 fold
  Range with ≥2-Fold-Activation: 2.2-20.1 fold
  N with ≥2-Fold-Activation: 9 out of 12 and 9 of 12
[1]; Example 15 1000 nM
  Subjects with ≥2-Fold-Activation (%): 50%
  N with ≥2-Fold-Activation: 3 of 6
[1]; Example 15 1000 nM, N = 6
  Fold HIV-1 Activation, Geometric Mean: 2.1 fold
[1]; Example 15 1000 nM, one value per subject (IDs 205-210)
  Fold HIV-1 Activation: 0.6 fold and 4.7 fold and 0.8 fold and 9.7 fold and 2.0 fold and 1.9 fold
